From PubChem BioAssay (NCI)
Values joined by “and” are separate entries in the source; they are usually repeats but may differ in a detail not shown here. Equal values may be shown once.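 Exposure lasted 48 hours, with cells grown in 96-well plates and compounds tested at five concentrations. GI50 marks 50% less growth. Definition used: TGI = concentration required for complete inhibition of growth.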

Experiments:
Experiment in all cases: DTP human tumour cell line panel, 48 h
HT29 colon = system: HT29 colon
IGROV1 ovarian = system: IGROV1 ovarian
HCT-15 colon = system: HCT-15 colon
COLO 205 colon = system: COLO 205 colon
MALME-3M melanoma = system: MALME-3M melanoma
SK-MEL-2 melanoma = system: SK-MEL-2 melanoma
ACHN renal = system: ACHN renal
HOP-62 NSCLC = system: HOP-62 NSCLC
NCI/ADR-RES ovarian = system: NCI/ADR-RES ovarian
MCF7 breast = system: MCF7 breast

Row | Structure (SMILES) | TGI (HT29 colon) [µM] | TGI (IGROV1 ovarian) [µM] | TGI (HCT-15 colon) [µM] | TGI (COLO 205 colon) [µM] | TGI (MALME-3M melanoma) [µM] | TGI (SK-MEL-2 melanoma) | TGI (ACHN renal) [µM] | TGI (HOP-62 NSCLC) [µM] | TGI (NCI/ADR-RES ovarian) [µM] | TGI (MCF7 breast) [µM] | GI50 (HT29 colon) [µM] | GI50 (IGROV1 ovarian) [µM] | GI50 (HCT-15 colon) [µM] | GI50 (COLO 205 colon) [µM] | GI50 (MALME-3M melanoma) [µM] | GI50 (NCI/ADR-RES ovarian) [µM] | GI50 (MCF7 breast) [µM] | GI50 (ACHN renal) | GI50 (HOP-62 NSCLC) [µM] | GI50 (SK-MEL-2 melanoma) [µM]
1 | CCCC(=O)[O-].N.N.N.N.N.[Co+3].[O-][Cl+3]([O-])([O-])[O-] | > 100 | > 100 | > 100 | > 100 | > 100 | > 100 µM | > 100 | > 100 |  |  |  |  |  |  |  |  |  |  |  | 
2 | COC1OC2=CCC3C(=O)NC(=O)C3C2[C@H](OCc2ccccc2)C1OCc1ccccc1 (stereo partly specified) | 3.36 | 3.86 | 3.86 |  | 3.26 | 16.4 µM | 34.8 | 31.7 |  |  |  |  |  |  |  |  |  |  |  | 
3 | O=C(N/N=C/c1cc(Br)cc(Br)c1[O-])c1ccccc1O.O=C(N/N=C/c1cc(Br)cc(Br)c1[O-])c1ccccc1O.[Ni+2] | 2.24 | 1.34 | 1.57 | 3.22 | 1.98 | 1.3 µM | 1.53 | 1.82 |  |  |  |  |  |  |  |  |  |  |  | 
4 | CCOC(=O)N1CCC(=C2c3ccc(Cl)cc3CCc3cccnc32)CC1 | 16.9 | 8.22 | 23.4 | 21.6 | 24.7 | 27.4 µM | 15.8 | 36.3 | 23.6 | 23.8 |  |  |  |  |  |  |  |  |  | 
5 | CN(C)/N=N/c1nc[nH]c1C(N)=O | > 1000 |  | > 1000 | > 1000 | > 1000 | 74.1 µM and 396 µM | > 1000 |  |  | > 1000 | 607 | 129 | 73.8 | 139 | 243 | 232 | 154 | 32.5 µM and 76.6 µM | 43.8 | 
6 | O=c1ccc2nc(-c3ccccn3)nn(-c3ccccc3)c-2c1 | 8.85 | 6.65 |  | 5.12 | 3.37 | 8.68 µM | 2.99 | 44.3 | 65.3 | 4.71 | 2.85 | 2.63 |  | 2.2 | 1.77 | 6.91 | 0.783 | 1.59 µM | 3.76 | 2.96
7 | O=C(O)C(=O)/C=C(\O)c1ccc(Br)cc1 | > 100 | > 100 | > 100 | > 100 | > 100 | > 100 µM | > 100 | > 100 | > 100 | > 100 |  |  |  |  |  |  |  |  |  | 
8 | COc1ccc2nc3cc(Cl)ccc3c(NCCNc3c4ccc(Cl)cc4nc4ccc(OC)cc34)c2c1 |  |  |  | 3.39 | 3.76 | 3.5 µM | 3.11 |  |  |  |  |  |  | 1.64 | 2.07 |  |  | 1.6 µM |  | 1.81
9 | O=c1ccc2ccc(O)cc2o1 | > 100 | > 100 | > 100 | > 100 | > 100 | > 100 µM | > 100 | > 100 | > 100 | > 100 |  |  |  |  |  |  |  |  |  | 
10 | NCCCNCCCCN1CC1 | > 37.5 |  | > 33.2 | 4.06 |  |  |  | 14.1 | > 20.7 | > 100 |  |  |  |  |  |  |  |  |  | 
11 | C=C1C(=O)OC2CC3(C)OC3CC/C(C)=C/C(OC(C)=O)C12 (stereo unspecified) | 13.5 | 35.3 | 19.3 | 4.03 | 5.9 | 31.5 µM | 23.3 | 33.5 | 30.1 | 18 |  |  |  |  |  |  |  |  |  | 
12 | COc1ccc(Sc2ccccc2N)cc1 | 50.5 | > 100 | > 100 | 32.8 | > 100 | > 100 µM | > 100 | > 100 |  |  |  |  |  |  |  |  |  |  |  | 
13 | Cc1ccc(CCC(=O)C(=O)O)s1 | > 100 | > 100 | > 100 | > 100 | > 100 | > 100 µM | > 100 | > 100 |  |  |  |  |  |  |  |  |  |  |  | 
14 | Cc1nc2ccccc2c(/C=C/c2ccc(Cl)cc2)c1C(=O)/C=C/c1ccccc1 | > 100 | 3.68 | 4.03 | 4.62 | 3.01 |  | 2.86 |  |  |  | 1.58 | 1.24 | 1.36 | 1.98 | 1.63 |  |  | 1.53 µM |  | 
15 | COC(=O)C(NC(=O)c1ccccc1)C(c1ccc(Cl)cc1)P(=O)(OC)OC (stereo unspecified) | > 100 | > 100 | > 100 | > 100 |  | > 100 µM | > 100 | > 100 |  |  |  |  |  |  |  |  |  |  |  | 
16 | CCOc1ccc2c(c1)c(=O)c1c(NCCN(CC)CC)ccc3nnn2c31 | 32 | 30.3 | 48.2 | > 54 | 33.8 | > 100 µM | > 56.1 | > 48.8 | > 54.2 | > 68.7 |  |  |  |  |  |  |  |  |  | 
17 | CCCCNC(=O)/N=C/c1c(O)c2ccccc2oc1=O | > 100 | > 100 | > 100 | > 100 |  | 66.1 µM | > 100 | > 100 |  |  |  |  |  |  |  |  |  |  |  | 
18 | COc1ccc(N2NC(c3ccccc3)(c3ccccc3)C(C)C2=O)cc1 (stereo unspecified) | > 100 | > 100 | > 100 | 34 | > 100 | > 100 µM | > 100 | > 100 | > 100 | > 100 |  |  |  |  |  |  |  |  |  | 
19 | CC(C)(C)CC(C)(C)c1ccc(O)c(C[N+](C)(C)[O-])c1 | > 100 | > 100 | > 100 | > 100 | > 100 | > 100 µM | > 100 | > 100 | > 100 | > 100 |  |  |  |  |  |  |  |  |  | 
20 | Cc1ccc(NC(=O)CSC(N)=O)cc1C | > 100 | > 100 | > 100 | > 100 | > 100 | > 100 µM | > 100 | > 100 | > 100 | > 100 |  |  |  |  |  |  |  |  |  | 
21 | COc1ccc(C[C@H](N)C(=O)N2C[C@@H](CO)C[C@@H](n3ccc(=O)[nH]c3=O)C2)cc1 | > 100 | > 100 | > 100 | > 100 | > 100 | > 100 µM | > 100 | > 100 |  |  |  |  |  |  |  |  |  |  |  | 
22 | COc1ccc(-c2nn(-c3ccc(NC(=O)Nc4ccc(Cl)c(C(F)(F)F)c4)cc3)cc2-c2ccncc2)cc1Cl | 4.57 | 63.1 | 3.03 | 3.13 | 5.09 | 3.75 µM | 5.27 | 4.45 | > 100 | 4.54 | 1.65 | 2.16 | 1.12 | 1.62 | 1.59 | 2.4 | 1.7 | 1.6 µM | 1.81 | 1.74
